Measured values taken from patent US20240174622A1, “COMPOUND AND RADIOACTIVE LABELING COMPOUND” (NIHON MEDI-PHYSICS CO., LTD., priority 2021, published 2024).

Assays:
[1] = test system: LNCaP tumor; assay type: in vivo, mouse; conditions: for time after administration at which a significant difference in tumor volume from the saline-administered group was observed: 3.7 MBq, tail vein
Experimental: LNCaP tumor-implanted mice were administered saline solutions (100 μL) of [^90Y]Y-PSMA-DA1 (3.7 MBq) or [^90Y]Y-PSMA-DB (3.7 MBq) obtained by the method described above from the tail vein (n=7). As the control group, LNCaP tumor-implanted mice were administered 100 μL of saline from the tail vein (n=7). After administration of the ^90Y-labeling compound, the tumor volume and body weight were measured 3 times per week. The tumor volume was calculated based on the calculation formula “(tumor volume)=[(long side) x (short side) 2/2]”.

[2] = compared with one hour after administration; EJNMMI Res 2012, J Nucl Med 2017; cited from earlier work
[3] = test system: LNCaP tumor; test: Evaluation of suppressing tumor growth by 225Ac-labeling compound; assay type: in vivo, mouse; conditions: 20 kBq, tail vein
Experimental: [^225Ac]Ac-PSMA-DA1 (20 kBq) or [^225Ac]Ac-PSMA-DB (20 kBq) obtained by the above method was dissolved in 5% ethanol-containing acetate buffer (158 mM, pH 6.5, 100 μL), and the solution was administered to LNCaP tumor-transplanted mice from the tail vein (n=6 or 5). As the control group, 100 μL of 5% ethanol-containing acetate buffer (158 mM, pH 6.5) was administered to LNCaP tumor-transplanted mice from the tail vein (n=4).
After administration of the ^225Ac-labeling compound, the tumor volume and body weight were measured 2 times per week. The tumor volumes on the day when administration of ^225Ac-labeling compound was started were 75.3±26.0, 80.6±20.8, and 91.1±15.9 mm^3 for the groups administered [^225Ac]Ac-PSMA-DA1, [^225Ac]Ac-PSMA-DB, and 5% ethanol-containing acetate buffer, respectively.

Row | Structure (SMILES) | time after administration at which a significant difference in tumor volume from the saline-administered group was observed [1] | body weight reduction [3] | tumor growth compared with the control group [3] | other results
1 | O=C([O-])CN1CCN(C(CCC(=O)NCCCC[C@H](NC(=O)N[C@@H](CCC(=O)O)C(=O)O)C(=O)O)C(=O)[O-])CCN(CC(=O)[O-])CCN(C(CCC(=O)Nc2ccccc2)C(=O)[O-])CC1.[90Y+3] (stereo partly drawn) [[^90Y]Y-PSMA-DB, reference compound] | 33 days | – | – | –
2 | O=C([O-])CN(CCN(CC(=O)[O-])Cc1cc(CCC(=O)NCCCCCC(=O)NCCCC[C@H](NC(=O)N[C@@H](CCC(=O)O)C(=O)O)C(=O)O)ccc1[O-])Cc1cc(CCC(=O)O)ccc1[O-].[68Ga+3].[OH3+] [[^68Ga]Ga-PSMA-11] | – | – | – | kidney accumulation of known radiolabeled compound [2]: 139 % ID/g
3 | O=C([O-])CN1CCN(C(CCC(=O)NCCCC[C@H](NC(=O)N[C@@H](CCC(=O)O)C(=O)O)C(=O)O)C(=O)[O-])CCN(CC(=O)[O-])CCN(C(CCC(=O)N[C@@H](CCCCNC(=O)CCCc2ccc(I)cc2)C(=O)O)C(=O)[O-])CC1.[90Y+3] (stereo partly drawn) [[^90Y]Y-PSMA-DA1] | 9 days | – | – | body weight of the mice ([1]; mouse, in vivo): slightly reduced
4 | O=C([O-])CN1CCN(C(CCC(=O)NCCCC[C@H](NC(=O)N[C@@H](CCC(=O)O)C(=O)O)C(=O)O)C(=O)[O-])CCN(CC(=O)[O-])CCN(C(CCC(=O)Nc2ccccc2)C(=O)[O-])CC1.[225Ac+3] (stereo partly drawn) [[^225Ac]Ac-PSMA-DB, reference compound] | – | no sign of recovery | significantly suppressed | –
5 | O=C([O-])CN1CCN(C(CCC(=O)NCCCC[C@H](NC(=O)N[C@@H](CCC(=O)O)C(=O)O)C(=O)O)C(=O)[O-])CCN(CC(=O)[O-])CCN(C(CCC(=O)N[C@@H](CCCCNC(=O)CCCc2ccc(I)cc2)C(=O)O)C(=O)[O-])CC1.[225Ac+3] (stereo partly drawn) [[^225Ac]Ac-PSMA-DA1] | – | transient | significantly suppressed | growth suppression continuously observed until [3]: 6 weeks
